Test results published in patent US20040126437A1, “Typing natural products” (priority 2000, published 2004).
Values after ≈ are worked out from the molar mass of the structure shown.

Columns and labels:
[1] = test system: fibrosarcoma (line HT-1080); details: HT1080 fibrosarcoma cells; cited from earlier work
[2] = test system: uterus colon carcinoma (line L5-26); details: L5-26 colon cells; cited from earlier work
[3] = Hepatocytes; read-out: Hepatoprotection Effect IC50 μM (Hepatocytes); cited from earlier work
[4] = cited from earlier work
[5] = test system: H. pylori NTCT 11637; details: strain NTCT 11637; cited from earlier work
[6] = test system: H. pylori NTCT 11916; details: strain NTCT 11916; cited from earlier work
[7] = test system: H. pylori ATCC 43504; details: strain ATCC 43504; cited from earlier work
[8] = test system: insulated cavy trachea (ICT); details: ICT contracted with hystamine (1 μM), cited from earlier work; for Emax, tension: relaxation
[9] = test system: Escherichia coli; experiment: Antibacterial activity, inhibition halos in culture; format: cell-based; details: Escherichia coli culture
Excerpt: (§1) The insulated compounds DCBEN, DHCA, E and mixture of E+DPB have their antibacterial properties tested in cultures of E.coli, Pseudomonas aeruginosa, Staphylococcus aureus and Streptococcus faecalis. Inhibition halos (in mm) and the obtained data recorded as in FIG. 1.
(§2) Antibacterial activity of the compounds K, G1, G2 e L2 has been evaluated in cultures of E.coli, Pseudomonas aeruginosa, Staphylococcus aureus and Streptococcus faecalis. Inhibition halos have been measured (mm) and the data recorded as in FIG. 1. S.aureus, S.faecalis e E.coli, are sensitive to the tested compounds, just varying the halos, the compound G2 has the most toxity in cultures of S.aureus e S.faecalis. None of the tested compounds had effect in P.aeruginosa.

[10] = test system: Pseudomonas aeruginosa; experiment: as above; format: cell-based
Excerpt: as §1, §2

[11] = test system: Staphylococcus aureus; experiment: as above; format: cell-based; details: for Antibacterial activty, inhibition halo: Staphylococcus aureus culture
Excerpt: as §1, §2

[12] = test system: Streptococcus faecalis; experiment: as above; format: cell-based; details: for Antibacterial activty, inhibition halo: Streptococcus faecalis culture
Excerpt: as §1, §2

[13] = test system: T. cruzi trypomastigotes; experiment: Effects against T. cruzi trypomastigotes cultures; format: cell-based, Trypanosoma cruzi
Method: FIG. 2 are recorded ID50 data related to trypomastigotes cultures (one of the growing stages of Trypanosoma cruzi (T.cruzi)) also to the compounds DCBEN, DHCA, E and mixture E+DPB and the effects of said compounds extracted from propolis trypomastigotes of T.cruzi (in mg/mL). […] The same result for Violet Crystal is 0.205 mg/mL, as previously mentioned. The results for insulated compounds are greater than the Violet Crystal.

[14] = insulated labdan acids; cited from earlier work

Compound	Antitumor activity (LD50 μg/mL) HT1080 (Fibrosarcoma) [1]	Antitumor activity (LD50 μg/mL) L5-26 (Colon) [2]	IC50 [3]	MIC (H. pylori mg/mL) NTCT 11637 [5]	MIC (H. pylori mg/mL) NTCT 11916 [6]	MIC (H. pylori mg/mL) ATCC 43504 [7]	also measured
COc1cc([C@@H]2OC=C(c3cc4cc(O)c(C(C)=O)cc4o3)C[C@H]2COC(C)=O)ccc1O [Compound 26]	13.9 µg/mL	12.4 µg/mL	63.5 µM	>1 mg/mL	>1 mg/mL	>1 mg/mL	Antioxidant Activity (DPPH) [4]: 29.1 µg/mL
CC(C)=CCc1cc(/C=C/C(=O)O)ccc1OC(=O)CCc1ccccc1 [Compound 6]	25.94 µg/mL	77.90 µg/mL	26.9 µM	0.25 mg/mL (≈ 0.686 mM)	0.50 mg/mL (≈ 1.37 mM)	0.50 mg/mL (≈ 1.37 mM)	–
C=C(C)[C@H]1Cc2cc(C(C)=O)ccc2O1 [Compound 16]	57.40 µg/mL	58.09 µg/mL	–	–	–	–	–
CC(C)=CCc1cc(/C=C/C(=O)O)cc2c1OC(C)(C)C(O)C2 (centres unmarked) [Compound 1]	71.53 µg/mL	77.07 µg/mL	–	0.13 mg/mL (≈ 0.411 mM)	0.25 mg/mL (≈ 0.79 mM)	0.25 mg/mL (≈ 0.79 mM)	–
CC(C)=CCc1cc(/C=C/C(=O)O)ccc1O [Compound 7]	>100 µg/mL	>100 µg/mL	34.6 µM	>1 mg/mL	>1 mg/mL	>1 mg/mL	–
CC(C)=CCc1cc(/C=C/C(=O)O)cc2c1OC(C)(C)C=C2 [Compound 2]	46.86 µg/mL	50.22 µg/mL	88.1 µM	0.50 mg/mL (≈ 1.68 mM)	0.50 mg/mL (≈ 1.68 mM)	1.00 mg/mL (≈ 3.35 mM)	–
COc1cc([C@@H]2c3c(oc4cc(C(C)=O)c(O)cc34)C(=O)C[C@H]2COC(C)=O)ccc1O [Compound 27]	43.2 µg/mL	13.7 µg/mL	15 µM	>1 mg/mL	>1 mg/mL	>1 mg/mL	Antioxidant Activity (DPPH) [4]: 30.1 µg/mL
CC1(C)C=Cc2cc(/C=C/C(=O)O)ccc2O1 [Compound 3]	>100 µg/mL	>100 µg/mL	–	>1 mg/mL	>1 mg/mL	>1 mg/mL	–
CC(C)=CCc1cc(C=CC(=O)O)ccc1O [PHCA, 3-prenyl-4-hydroxycinnamic acid]	–	–	–	–	–	–	Emax, tension [8]: 1.258 ± 84 g
C=C(C)C1Cc2cc(/C=C/C(=O)O)cc(CC=C(C)C)c2O1 (centres unmarked) [Compound 25]	>100 µg/mL	>100 µg/mL	–	0.25 mg/mL (≈ 0.838 mM)	0.13 mg/mL (≈ 0.436 mM)	0.13 mg/mL (≈ 0.436 mM)	Antioxidant Activity (DPPH) [4]: 15.0 µg/mL
COc1cc(C=CC=O)ccc1O [Compound G2, 3-methoxy-4-hydroxycinnamaldehyde]	–	–	–	–	–	–	Antibacterial activty, inhibition halo [9]: + (+ halo < or = to 8 mm); Antibacterial activty, inhibition halo [10]: Ø; Antibacterial effect in words ([11]; S.aureus culture): most toxity; Antibacterial activty, inhibition halo [11]: ++ (++ halo > or = to 8 mm and < 12 mm); Antibacterial effect in words ([12]; S.faecalis culture): most toxity; Antibacterial activty, inhibition halo [12]: ++ (++ halo > or = to 8 mm and < 12 mm)
COc1cc(/C=C/C=O)ccc1O [Compound 9]	4.05 µg/mL	10.44 µg/mL	45.8 µM	>1 mg/mL	>1 mg/mL	>1 mg/mL	Antioxidant Activity (DPPH) [4]: 11.1 µg/mL
COc1cc(C=O)ccc1O [Compound G1]	–	–	–	–	–	–	Antibacterial activty, inhibition halo [9]: + (+ halo < or = to 8 mm); Antibacterial activty, inhibition halo [10]: Ø; Antibacterial activty, inhibition halo [11]: + (+ halo < or = to 8 mm); Antibacterial activty, inhibition halo [12]: + (+ halo < or = to 8 mm)
CC1(C)C=Cc2cc(C=CC(=O)O)ccc2O1 [DCBEN, 2,2-Dimethyl-6-carboxiethenyl-2H-1-benzopyran]	–	–	–	–	–	–	Antibacterial activty, inhibition halo [9]: + (+ halo < or = to 8 mm); Antibacterial activty, inhibition halo [10]: Ø; Antibacterial activty, inhibition halo [11]: ++ (++ halo > or = to 8 mm and < 12 mm); Antibacterial activty, inhibition halo [12]: ++ (++ halo > or = to 8 mm and < 12 mm); ID50/24 h [13]: 1696 ± 32 µg/mL (≈ 7.37 mM); EC50 ([8]; read-out: CE50 (the source's name)): 0.25 µM; Emax, tension [8]: 0.80 ± 0.05 g
CN(C)c1ccc(C(=C2C=CC(=[N+](C)C)C=C2)c2ccc(N(C)C)cc2)cc1.[Cl-] [Cristal violet, reference compound]	–	–	–	–	–	–	ID50/24 h [13]: 205 µg/mL
C=C1CC[C@@H]2[C@](C)(CCC[C@]2(C)C(=O)O)[C@H]1CC[C@H](C)CCO [[d], imbricatoloic acid]	–	–	–	–	–	–	Antibacterial activity by bioautography [14]: most active
C=C(CO)[C@H]1Cc2cc(O)c(C(C)=O)cc2O1 [Compound 17]	45.48 µg/mL	57.15 µg/mL	–	>1 mg/mL	>1 mg/mL	>1 mg/mL	–
CC(C)=CCc1cc(/C=C/C(=O)O)cc(CC=C(C)C)c1O [Compound 5]	45.47 µg/mL	59.32 µg/mL	–	>1 mg/mL	>1 mg/mL	>1 mg/mL	Antioxidant Activity (DPPH) [4]: 5.6 µg/mL
CC(C)=CCc1cc(C=CC(=O)O)cc2c1OC(C)(C)C=C2 [E]	–	–	–	–	–	–	Antibacterial activty, inhibition halo [9]: + (+ halo < or = to 8 mm); Antibacterial activty, inhibition halo [10]: Ø; Antibacterial activty, inhibition halo [11]: + (+ halo < or = to 8 mm); Antibacterial activty, inhibition halo [12]: + (+ halo < or = to 8 mm)
CC(C)=CCc1cc(/C=C/C(=O)O)cc(C/C=C(\C)COC(=O)CCc2ccccc2)c1O [Compound 24]	>100 µg/mL	>100 µg/mL	15.2 µM	0.13 mg/mL (≈ 0.29 mM)	0.25 mg/mL (≈ 0.557 mM)	0.25 mg/mL (≈ 0.557 mM)	Antioxidant Activity (DPPH) [4]: 12.2 µg/mL
2-[1-hydroxymethyl]vinyl-6-acetyl-5-hydroxy-coumaran	–	–	–	–	–	–	Emax, tension [8]: 1.06 ± 0.09 g
COc1ccc(-c2oc3cc(O)cc(O)c3c(=O)c2O)cc1 [Compound 22]	26.97 µg/mL	70.98 µg/mL	22 µM	1.0 mg/mL (≈ 3.33 mM)	1.0 mg/mL (≈ 3.33 mM)	>1 mg/mL	–
C=C(COC(C)=O)[C@H]1Cc2cc(O)c(C(C)=O)cc2O1 [Compound 18]	>100 µg/mL	>100 µg/mL	–	1.0 mg/mL (≈ 3.62 mM)	1.0 mg/mL (≈ 3.62 mM)	1.0 mg/mL (≈ 3.62 mM)	–
CC1(C)C=Cc2cc(C(=O)O)ccc2O1 [Compound 4]	>100 µg/mL	>100 µg/mL	–	–	–	–	–
